Measured values as given in ChEMBL document CHEMBL1201862, “PubChem BioAssay data set” (2004).
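Five compound concentrations were applied to cells in 96-well plates for 48 hours; endpoints were derived by simple linear interpolation of the resulting dose-response curve. Abbreviation: GI50, concentration required for 50% inhibition of growth.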 Calls of active or inactive are those of the source. No stated cut-off is given here; in the data, active = GI50 up to about 1.1 µM and inactive = higher.

Key:
Experiment in all cases: NCI tumour cell line growth inhibition, 48 h
BT-549 = test system: BT-549
CCRF-CEM = test system: CCRF-CEM
EKVX = test system: EKVX
HCT-116 = test system: HCT-116
HOP-62 = test system: HOP-62
HOP-92 = test system: HOP-92
IGROV-1 = test system: IGROV-1
KM12 = test system: KM12
LOX IMVI = test system: LOX IMVI
MOLT-4 = test system: MOLT-4
NCI-H226 = test system: NCI-H226
NCI-H23 = test system: NCI-H23
NCI-H460 = test system: NCI-H460
NCI-H522 = test system: NCI-H522
RPMI-8226 = test system: RPMI-8226
SF-268 = test system: SF-268
SF-539 = test system: SF-539
SK-MEL-2 = test system: SK-MEL-2
U-251 = test system: U-251
UACC-257 = test system: UACC-257

Row | Compound | GI50 (BT-549) | GI50 (CCRF-CEM) | GI50 (EKVX) | GI50 (HCT-116) | GI50 (HOP-62) | GI50 (HOP-92) | GI50 (IGROV-1) | GI50 (KM12) | GI50 (LOX IMVI) | GI50 (MOLT-4) | GI50 (NCI-H226) | GI50 (NCI-H23) | GI50 (NCI-H460) | GI50 (NCI-H522) | GI50 (RPMI-8226) | GI50 (SF-268) | GI50 (SF-539) | GI50 (SK-MEL-2) | GI50 (U-251) | GI50 (UACC-257)
1 | O=C(/C=C/c1cc(O)c(O)cc1O)OCCc1ccccc1 | 25.7 µM (inactive) | 2.07 µM (inactive) | 41.4 µM (inactive) | > 41.7 µM (inactive) | 31.1 µM (inactive) | 7.6 µM (inactive) | 23.1 µM (inactive) | 62.4 µM (inactive) | 12.9 µM (inactive) | 2.87 µM (inactive) | 35.6 µM (inactive) | 24.2 µM (inactive) | 34.5 µM (inactive) | 2.28 µM (inactive) | 3.56 µM (inactive) | 19 µM (inactive) | 18.6 µM (inactive) | 20.8 µM (inactive) | 27.7 µM (inactive) | 34.8 µM (inactive)
2 | O=C1C=CC(=O)N1c1ccc2c(c1)Cc1cc(NC(=O)C(F)(F)F)ccc1-2 | 16.6 µM (inactive) | 3.96 µM (inactive) | 14.9 µM (inactive) | 7.36 µM (inactive) | 20.1 µM (inactive) | 16.8 µM (inactive) | 16.6 µM (inactive) | 18.5 µM (inactive) | 18 µM (inactive) | 4.25 µM (inactive) | 4.84 µM (inactive) | 16.4 µM (inactive) | > 100 µM (inactive) | 5.09 µM (inactive) | 2.9 µM (inactive) | 19.1 µM (inactive) | 18 µM (inactive) | 18.4 µM (inactive) | 18.2 µM (inactive) | 18 µM (inactive)
3 | C=C1CC(C)(COc2cc(=O)oc3ccccc23)OC1=O (stereo not given) | 1.73 µM (inactive) | 1.86 µM (inactive) | 12.3 µM (inactive) | 2.71 µM (inactive) | 20.2 µM (inactive) | 1.2 µM (inactive) | 3.03 µM (inactive) | 8.02 µM (inactive) | 2.56 µM (inactive) | 1.94 µM (inactive) | 10.3 µM (inactive) | 3.87 µM (inactive) | 11.1 µM (inactive) | 1.8 µM (inactive) | 0.637 µM (active) | 14.9 µM (inactive) | 3.96 µM (inactive) | 2.51 µM (inactive) | 14.3 µM (inactive) | 1.87 µM (inactive)
4 | CN(/N=C/c1ccccn1)C1=NCCCN1 | > 100 µM (inactive) | > 100 µM (inactive) | > 100 µM (inactive) | > 100 µM (inactive) | > 100 µM (inactive) | > 100 µM (inactive) | > 100 µM (inactive) | > 100 µM (inactive) | > 100 µM (inactive) | > 100 µM (inactive) | > 100 µM (inactive) | > 100 µM (inactive) | > 100 µM (inactive) | > 100 µM (inactive) | > 100 µM (inactive) | > 100 µM (inactive) | > 100 µM (inactive) | > 100 µM (inactive) | > 100 µM (inactive) | > 100 µM (inactive)
5 | O=C(c1cc2c(c3ccccc13)NC1(CCCCC1)N=C2C(F)(F)F)C(F)(F)F | 4.37 µM (inactive) | 3.39 µM (inactive) | 4.82 µM (inactive) | 3.3 µM (inactive) | 40.5 µM (inactive) | 3.69 µM (inactive) | 4.93 µM (inactive) | 3.42 µM (inactive) | 3.33 µM (inactive) | 3.29 µM (inactive) | 4.41 µM (inactive) | 3.83 µM (inactive) | 3.27 µM (inactive) | 2.65 µM (inactive) | 3.47 µM (inactive) | 5.85 µM (inactive) | 2.53 µM (inactive) | 2.44 µM (inactive) | 3.78 µM (inactive) | 3.17 µM (inactive)
6 | CCOC(=O)c1ccc(/N=c2\oc3ccc(OC)cc3cc2-c2nc3ccccc3[nH]2)cc1 | > 100 µM (inactive) | > 100 µM (inactive) | > 100 µM (inactive) | > 100 µM (inactive) | 54.6 µM (inactive) | > 100 µM (inactive) | > 100 µM (inactive) | > 100 µM (inactive) | > 100 µM (inactive) | > 100 µM (inactive) | 0.516 µM (active) | 10.4 µM (inactive) | > 100 µM (inactive) | 71.6 µM (inactive) | > 100 µM (inactive) | > 100 µM (inactive) | 1.99 µM (inactive) | > 100 µM (inactive) | 31.4 µM (inactive) | > 100 µM (inactive)
7 | CN(C)NC1=NS(=O)(=O)c2cc3c(=O)n(C)[nH]c3cc2S1 | > 10 µM (inactive) | > 10 µM (inactive) | > 10 µM (inactive) | > 10 µM (inactive) | > 10 µM (inactive) | > 10 µM (inactive) | > 10 µM (inactive) | > 10 µM (inactive) | > 10 µM (inactive) | > 10 µM (inactive) | > 10 µM (inactive) | > 10 µM (inactive) | > 10 µM (inactive) | > 10 µM (inactive) | > 10 µM (inactive) | > 10 µM (inactive) | > 10 µM (inactive) | > 10 µM (inactive) | > 10 µM (inactive) | > 10 µM (inactive)
8 | COc1c(OC)c(OC)c2c(=O)cc(-c3ccc(OC(C)C)cc3)oc2c1OC | 16.7 µM (inactive) | 6.37 µM (inactive) | 26.4 µM (inactive) | 10.8 µM (inactive) | 18.5 µM (inactive) | 8.17 µM (inactive) | > 42.6 µM (inactive) | 30.9 µM (inactive) | 27.5 µM (inactive) | 3.87 µM (inactive) | 15.1 µM (inactive) | 27.6 µM (inactive) | 27.4 µM (inactive) | 20.9 µM (inactive) | 3.75 µM (inactive) | > 35.9 µM (inactive) | 19.7 µM (inactive) | 20.8 µM (inactive) | > 37.2 µM (inactive) | 25.6 µM (inactive)
